Test system: anti-DNP antibody
Assay: Competition between free ethanolamine-DNP and DNP on a plate
Type: binding
Settings: 1,000 ug/mL sera concentration
Experimental: The Mean fluorescence intensity (MFI) separation was greatest at the higher dilution of 1,000 ug/mL sera.

- competition with the binding of DNP (on a plate) to anti-DNP antibody: direct competition
SMILES: O=[N+]([O-])c1ccc(NCCO)c([N+](=O)[O-])c1 [ethanolamine-DNP]

Reference: patent US20120269799A1, “DIAGNOSTIC AND TREATMENT METHODS USING A LIGAND LIBRARY” (priority 2011, published 2012)
